Data set [1] concerns S. aureus 25923. In words: MBEC assay, micro-titer method (biofilm). The format is cell-based, Staphylococcus aureus. The method, then: (§1) The antibacterial assays were performed on Gram-negative (Escherichia coli ATCC 25922, E. coli 5, Pseudomonas aeruginosa ATCC 27853, P. aeruginosa ATCC 9027) and Gram-positive (Staphylococcus aureus ATCC 25923, S. aureus ATCC 6538, MRSA (Meticillin-resistant S. aureus) 388, ATCC, American Type Culture Collection) bacterial strains. Microbial suspensions (1.5 × 10^8 CFU/mL; colony forming units (CFU)) corresponding to 0.5 McFarland density obtained from 15 to 18-h bacterial cultures developed on solid media were used. The antimicrobial activity was tested on Mueller–Hinton agar medium.
(§2) The assessment of the complexes’ influence on the microbial ability to colonize an inert substratum with the establishment of the minimal biofilm eradication concentration (MBEC) was performed by the micro-titer method, following previously described protocols. The absorbance at 490 nm was measured with an Apollo LB 911ELISA (Berthold Technologies GmbH & Co. KG, Waltham, MA, USA) reader. All experiments were performed in triplicates.

Data set [2] deals with MRSA. In words: MBEC assay, micro-titer method (biofilm). The format is cell-based, Staphylococcus aureus. The method, then:
as §1, §2

Data set [3] has as its system S. aureus 6538. In words: MBEC assay, micro-titer method (biofilm). The format is cell-based, Staphylococcus aureus. The method, then:
as §1, §2

The subject of data set [4] is P. aeruginosa 27853. In words: MBEC assay, micro-titer method (biofilm). The class given is cell-based, Pseudomonas aeruginosa. The method, then: as §1, §2
Data set [5] relates to P. aeruginosa 9027. In words: MBEC assay, micro-titer method (biofilm). The class given is cell-based, Pseudomonas aeruginosa. As for the experimental part: as §1, §2
Data set [6] deals with S. aureus 25923. In words: MIC assay, liquid medium microdilution (planktonic growth). The class given is cell-based, Staphylococcus aureus. Conditions: Staphylococcus aureus; S. aureus 25923, 24 h at 37 °C; read-out: MIC. The method, then: as §1
(§3) The quantitative assay of the antimicrobial activity was performed by the liquid medium microdilution method, in 96-well multi-well plates, to establish the minimal inhibitory concentration (MIC). For this purpose, serial two-fold dilutions of the compounds ranging between 1.000 and 1.95 μg/mL were performed in a 200 μL volume of broth and each well was seeded with 50 μL microbial inoculums. Sterility control (wells containing only culture medium) and culture controls (wells containing culture medium seeded with the microbial inoculum) were used. The influence of the DMSO solvent was also quantified in a series of wells containing DMSO, diluted accordingly with the dilution scheme used for the complexes. The plates were incubated for 24 h at 37 °C, and MIC values were considered as the lowest concentration of the tested compound that inhibited the visible growth of the microbial overnight cultures.
(In general: Broth dilution looks for growth in wells or tubes with falling amounts of substance.)

Data set [7] relates to MRSA. The description is as above. The format is cell-based, Staphylococcus aureus. Conditions: Staphylococcus aureus, 24 h at 37 °C, read-out: MIC. As for the experimental part:
as §1, §3

Data set [8] concerns S. aureus 6538. The data set is described as above. The format is cell-based, Staphylococcus aureus. Conditions: Staphylococcus aureus; S. aureus 6538, 24 h at 37 °C; read-out: MIC. As for the experimental part:
as §1, §3

Data set [9] deals with E. coli 25922. The data set is described as above. The class given is cell-based, Escherichia coli. Conditions: Escherichia coli; E. coli 25922, 24 h at 37 °C; read-out: MIC. As for the experimental part: as §1, §3
Data set [10] has as its system E. coli 5 ESBL. Described as above. The note with it: Escherichia coli; E. coli 5 ESBL, 24 h at 37 °C; read-out: MIC. The class given is cell-based, Escherichia coli. The method, then:
as §1, §3

The test system of data set [11] is B16 (melanoma) tumor cells. In words: MTT cell viability assay. The format is cell-based, Mouse. Conditions: any tested concentration (0–25 μg/mL), 24 and 48 h. The method, then:
(§4) The cytotoxicity of ligand and copper(II) complexes was tested on normal BJ cell as well as on B16 (melanoma) tumor cells, which were grown for 48 h in culture medium containing the tested complexes in 0–25 μg/mL concentration range.
(§5) Human fibroblast cells (BJ-ATCC CRL-2522, Manassas, VA, USA) were grown in minimal essential medium (MEM) supplemented with 2 mM L-Glutamine, 10% fetal calf serum (FCS), 100 units/mL of penicillin and 100 µg/mL of streptomycin at 37 °C in a humidified incubator under an atmosphere containing 5% CO2. Mouse melanoma cells (B16-ATCC CRL-6475, Manassas, VA, USA) were grown in DMEM (Dulbecco’s Modified Eagle Medium) supplemented with similar reagents as MEM. All cell cultivation media and reagents were purchased from Biochrom AG (Berlin, Germany) and Sigma-Aldrich (Darmstadt, Germany).
(§6) Cell viability was evaluated using 3-(4,5-dimethylthiazol-2-yl)-2,5-diphenyltetrazolium bromide (MTT) assay, as described previously. First, the cells were seeded in 96-well plates (20,000 cells/well) and cultured for 24 h in medium. After overnight incubation, the medium was changed and the investigated sample in concentration varying from […] was added for 24 h. The negative control was represented by cells cultivated in medium without the investigated compounds. Following incubation, the medium was changed and the MTT solution was added to each well to a final concentration of 1 mg/mL and incubated for additional 4 h, at 37 °C. Finally, the medium was collected and DMSO was used to dissolve the insoluble formazan product. The absorbance of the samples was recorded at 570 nm using a plate reader Mithras 940 (Berthold). The data were corrected for the background and the percentage of viable cells was obtained using the equation:Cell viability = [(A570 of treated cells)/(A570 of untreated cells)] × 100%
(§7) The half-maximal inhibitory concentration (IC50) was determined by fitting the data with a logistical sigmoidal equation using the software Origin 8.1 from Microcal Inc. (Los Angeles, CA, USA).

Data set [12] relates to normal BJ cell (human fibroblast). In words: MTT cell viability assay. The format is cell-based. The note with it: any tested concentration (0–25 μg/mL), 24 and 48 h. The method, then:
as §4, §5, §6, §7

A further data set has as its system BJ cells. In words: Phalloidin staining and cell imaging (cytoskeleton, nucleus). The format is cell-based, Human. The note with it: 24 h, 6 μg/mL. As for the experimental part: (§8) Cytoskeleton actin filaments of BJ and B16 cells were stained with phalloidin-FITC (Sigma-Aldrich, USA) according to the manufacturer’s protocol. Briefly, cells were washed with PBS (5 min, 3 times), fixed for 5 min with 3% paraformaldehyde, washed three times with PBS, permeabilized with 0.1% Triton X-100 in PBS for 15 min, washed three times with PBS, stained with 20 μg mL^−1 phalloidin-FITC at room temperature for 1 h and washed again three times with PBS. Cell nucleus was stained with 8 μM of Hoechst 33342 solution for 10 min, washed three times with PBS and finally, mounted and sealed on glass slides with FluorSave™ Reagent (Merck Millipore, Germany). The fluorescence images were acquired using an Andor DSD2 Confocal Unit (Andor, Ireland), mounted on an epifluorescence microscope, Olympus BX-51 (Olympus, Germany), equipped with a 40x and 100x objective and an appropriate DAPI/Hoechst filter cube (excitation filter 390/40 m, dichroic mirror 405 nm and emission filter 452/45 nm) and GFP/FITC filter cube (excitation filter 466/40 nm, dichroic mirror 488 nm and emission filter 525/54 nm).

Data set [13] relates to P. aeruginosa 27853. In words: MIC assay, liquid medium microdilution (planktonic growth). The class given is cell-based, Pseudomonas aeruginosa. Conditions: Pseudomonas aeruginosa; P. aeruginosa 27853, 24 h at 37 °C; read-out: MIC. As for the experimental part:
as §1, §3

The subject of data set [14] is P. aeruginosa 9027. Described as above. The class given is cell-based, Pseudomonas aeruginosa. The note with it: Pseudomonas aeruginosa; P. aeruginosa 9027 (multi-drug-resistant), 24 h at 37 °C; read-out: MIC. As for the experimental part:
as §1, §3

Data set [15] in a line: Hemolytic activity (adapted ASTM F 756-00). The note with it: human red blood cells, 4 h at 37 °C, threshold 5% (ASTM F 756-00). The format is cell-based. The method, then: The hemolytic activity of the compounds was determined using an adapted protocol of ASTM F 756–00 standard based on hemoglobin release from human red blood cells (hRBCs) resulting after cell lyses. Briefly, the blood samples were collected from healthy volunteers, diluted to a concentration of hemoglobin ~10 mg/mL with phosphate buffer saline (PBS) and then incubated with various concentrations of compounds for 4 h at 37 °C. After 4 h, the cells were centrifuged, the supernatant was collected, transferred into 96-well tissue culture plates and mixed with Drabkin reagent, which converts hemoglobin to cyanmethemoglobin (absorption peak at 540 nm). After 15 min, the absorbance of the samples was read at 570 nm using a plate reader. The obtained data was background corrected and used to calculate the hemolytic index as percentage of the hemoglobin released after the treatment with the tested compounds, relative to control samples. The hRBCs in PBS and distilled water were used as negative and positive controls.

Data set [16] has as its system E. coli 25922. In words: MBEC assay, micro-titer method (biofilm). The format is cell-based, Escherichia coli. As for the experimental part:
as §1, §2

Data set [17] has as its system E. coli 5 ESBL. In words: MBEC assay, micro-titer method (biofilm). The class given is cell-based, Escherichia coli. The method, then: as §1, §2
The subject of another data set is B16 cells. In words: Phalloidin staining and cell imaging (cytoskeleton, nucleus). The format is cell-based, Mouse. Conditions: 24 h, 6 μg/mL. As for the experimental part:
as §8

Converted amounts (≈) assume the structure as drawn.

A word on the MIC: it is the lowest concentration found to suppress growth. With `Cc1cc(-c2ccccc2)nc2ncnn12` [pmtp, 5-phenyl-7-methyl-1,2,4-triazolo[1,5-a]pyrimidine], the MBEC value in the data set with S. aureus 25923 [1] is 6.00 mM; in the data set on MRSA [2], 6.00 mM; in the data set on S. aureus 6538 [3] it was 3.00 mM; with P. aeruginosa 27853 [4] it was 3.00 mM; in the data set on P. aeruginosa 9027 [5] it was 1.50 mM; in the data set on E. coli 25922 [16], 6.00 mM. In the data set on E. coli 5 ESBL [17], the MBEC value came out at 3.00 mM. Further, the MIC in the data set with S. aureus 25923 [6] turned out to be 6000 µM (≈ 1260 µg/mL); in the data set on MRSA [7] it was 6000 µM (≈ 1260 µg/mL); in the data set on S. aureus 6538 [8], 3000 µM (≈ 631 µg/mL); in the data set with E. coli 25922 [9] it was 3000 µM (≈ 631 µg/mL); in the data set with E. coli 5 ESBL [10], 3000 µM (≈ 631 µg/mL); with P. aeruginosa 27853 [13] it was 3000 µM (≈ 631 µg/mL). Besides, the MIC in the data set with P. aeruginosa 9027 [14] was found to be 3000 µM (≈ 631 µg/mL). For the same compound, the “Effect on viability of B16 cells” value in data set [11] was “did not affect the viability of the two cell lines”. Also, the “Effect on viability of BJ cells” value in data set [12] is on record as “did not affect the viability of the two cell lines”. For the same compound, the “Cell morphology (cytoskeleton and nucleus)” value in the data set with BJ cells is recorded as “does not alter its morphology”; with B16 cells, “does not alter the morphology of the cells”. In data set [15], this compound returned a hemolysis at 4 h, 25 µg/mL of 0.61 ± 0.05%.
